Experiments:
[1] = Half life in Han-Wistar rat at 1.0 umol/kg, iv; assay type: ADME, organism-based; conditions: in vivo
[2] = Bioavailability in Han-Wistar rat at 20 umol/kg, po; assay type: ADME, organism-based; conditions: in vivo
[3] = Distribution coefficient, log D of the compound; assay type: physicochemical; conditions: octanol/water
[4] = Bioavailability in Han-Wistar rat at 5 umol/kg, po; assay type: ADME, organism-based; conditions: in vivo
[5] = Volume of distribution at steady state in Han-Wistar rat at 1.0 umol/kg, iv; assay type: ADME, organism-based; conditions: in vivo, read-out: Vdss
[6] = Clearance in Han-Wistar rat at 1.0 umol/kg, iv; assay type: ADME, organism-based; conditions: in vivo
[7] = AUC in nude mouse at 2.0 umol/kg, iv; assay type: ADME, organism-based; conditions: plasma
[8] = AUC in Han-Wistar rat at 1.0 umol/kg, iv; assay type: ADME, organism-based; conditions: plasma
[9] = Clearance in nude mouse at 2.0 umol/kg, iv; assay type: ADME, organism-based; conditions: in vivo
[10] = Half life in nude mouse at 2.0 umol/kg, iv; assay type: ADME, organism-based; conditions: in vivo
[11] = AUC in Han-Wistar rat at 5 umol/kg, po; assay type: ADME, organism-based; conditions: plasma
[12] = Volume of distribution at steady state in nude mouse at 2.0 umol/kg, iv; assay type: ADME, organism-based; conditions: in vivo, read-out: Vdss
[13] = AUC in Han-Wistar rat at 20 umol/kg, po; assay type: ADME, organism-based; conditions: plasma

half-life [1]: 5.8 h
bioavailability [2]: 47%
logD [3]: 3
bioavailability [4]: 21%
Vd [5]: 1.7 L/kg
clearance [6]: 11.9 mL/min/kg
AUC [7]: 1.8 µM·h
AUC [8]: 1.4 µM·h
clearance [9]: 18.5 mL/min/kg
half-life [10]: 16.7 h
AUC [11]: 1.5 µM·h
Vd [12]: 9.5 L/kg
AUC [13]: 13.7 µM·h
Compound: CNC(=O)c1ccc(Nc2nccc(-c3cnc(C)n3C(C)C)n2)cc1F

Reference: ChEMBL document CHEMBL1152177, “Imidazole pyrimidine amides as potent, orally bioavailable cyclin-dependent kinase inhibitors” (Bioorg Med Chem Lett, 2008)
